≈ marks a conversion by molar mass, not a printed value.
How the values were obtained:
MRSA IBRS MRSA 011 [1] = assay: Catheter biofilm inhibition model; type: cell-based, Staphylococcus aureus; settings: even in the sub-MIC concentration, 24 h
Method: The method was performed as described previously, with some modifications. Sterile silicon 16-mm Romed catheters (Van Oostveen Medical, Wilnis, The Netherlands) were cut into 1 cm lengths and placed in 24-well plates (Sarstedt, Nümbrecht, Germany). P. aeruginosa IBRS P001 and MRSA in TSB with 2% glucose (Torlak, Belgrade, Serbia) and rutin (0.25–1 MIC) were added for the inhibition assay. After incubation (37 °C, 24 h), the catheters were washed with PBS and transferred to 1.5 mL tubes. PBS was added and tubes were vortexed vigorously. The samples were diluted and seeded onto Plate Count Agar (HiMedia Laboratories, Mumbai, India). After being incubated at 37 °C for 24 h, the CFU (colony forming units) count was determined and the inhibition percentage relative to the untreated control was calculated.

[2] = tested on: P. aeruginosa IBRS P001 elastase production; assay: Elastase assay (Elastin-Congo red); type: cell-based, Pseudomonas aeruginosa; settings: 0.25 mg/mL (0.5 MIC), compared to the control
Method: After 48 h of incubation (37 °C, 180 rpm), the mixtures were collected and centrifuged at 15,700× g for 15 min. Quantification of the elastase activity was measured at 495 nm using a Plate Reader Infinite 200 pro (MTX Lab Systems, Vienna, VA, USA). An untreated culture supernatant was used as a positive control (supplemented with the solvent). The experiment was done in triplicate.

MRSA IBRS MRSA 011 [3] = assay: Bacterial adhesion to HaCaT cells; type: cell-based, Staphylococcus aureus
Method: HaCaT cells were grown until confluence in 24-well plates with an adhesive bottom. The medium was removed and DMEM without FBS containing the rutin (MIC and 0.5 MIC) was added. The samples were incubated at 37 °C for 15 min, and bacteria (P. aeruginosa IBRS P001 and MRSA IBRS MRSA 011) were added. After incubation at 37 °C for 1 h, the cells were washed three times with DMEM without FBS and lyzed with 1 mL of 1% (v/v) Tween-20 (SigmaAldrich, Germany) at 37 °C for 30 min. Afterwards, dilutions of the bacterial suspension in each well were made and seeded on Plate Count Agar plates. The number of CFU was determined after incubation at 37 °C for 18 h, and the percentage of adhered bacterial cells was calculated following the equation:% (adhesion relative to the control) = 100 × CFU (treated)/CFU (control)
With CFU (treated) representing the number of CFUs after the treatment of cells with rutin and CFU (control) representing the number of bacterial CFUs in the untreated sample. The solvent treated sample was used as the control.

lasI = assay: RT-qPCR analysis of QS genes; type: cell-based, Pseudomonas aeruginosa; settings: 0.5 MIC, 0.25 mg/mL, vs untreated control
Method: (§1) Reverse transcription-quantitative PCR (RT-qPCR) was performed to reveal the impact of rutin on the P. aeruginosa IBRS P001 quorum sensing (QS) regulatory genes expression. The total RNA was extracted from the P. aeruginosa IBRS P001 test strain (grown for 10 h, 37 °C, aerobically) cultivated in Mueller-Hinton medium and supplemented with rutin (0.250 mg/mL, final concentration) or without it by an RNeasy Mini Kit (Qiagen, Hilden, Germany). The same volume of the ethanol (solvent) was added in the positive control. The total RNA was then treated with DNase I using an Ambion DNA-freeTM Kit (ThermoFisher, Waltham, MA, USA) and reverse transcribed by a Rever-tAid RT Reverse transcription Kit (ThermoFisher, Waltham, MA, USA) according to the manufacturer’s instructions. […] Obtained data were normalized against the ribosomal gene rpsL as an internal control following the 2^−ΔΔCT method. Experiments were done in triplicate.

pqsA = assay: RT-qPCR analysis of QS genes; type: cell-based, Pseudomonas aeruginosa; settings: 0.5 MIC, 0.25 mg/mL, vs untreated control
Method: as §1

lasR = assay: RT-qPCR analysis of QS genes; type: cell-based, Pseudomonas aeruginosa; settings: 0.5 MIC, 0.25 mg/mL, vs untreated control
Method: as §1

mvfR = assay: RT-qPCR analysis of QS genes; type: cell-based, Pseudomonas aeruginosa; settings: 0.5 MIC, 0.25 mg/mL, vs untreated control
Method: as §1

rhlR = assay: RT-qPCR analysis of QS genes; type: cell-based, Pseudomonas aeruginosa; settings: 0.5 MIC, 0.25 mg/mL, vs untreated control
Method: as §1

rhlI = assay: RT-qPCR analysis of QS genes; type: cell-based, Pseudomonas aeruginosa; settings: 0.5 MIC, 0.25 mg/mL, vs untreated control
Method: as §1

S. infantis 1371/1 = assay: Antimicrobial microdilution assay (MIC/MBC); type: cell-based, Salmonella Infantis; settings: Salmonella enterica, 1371/1
Procedure, shortened: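 Polyphenols 0.0039–1 mg/mL, stocks in 30% ethanol; inoculum 0.5 McFarland diluted twenty-fold, mixed 1:10; 24 h, 37 °C. MIC = no visible growth (binocular microscope). Streptomycin positive control, ethanol negative control; triplicate.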

[4] = tested on: P. aeruginosa IBRS P001 protease production; assay: Protease assay (azocasein); type: cell-based, Pseudomonas aeruginosa; settings: 0.25 mg/mL (0.5 MIC), compared to the control
Method: The impact of rutin on the proteolytic activity of P. aeruginosa IBRS P001 was measured using azocasein as a substrate. […] Samples were centrifuged at 9660 g, room temperature, for 10 min (Heraeus biofuge stratos centrifuge, Thermo Electron Corporation, Waltham, MA, USA). Afterwards, the supernatant was mixed with azocasein (2%, SigmaAldrich, Germany) and incubated at 37 °C for 45 min. The reaction was stopped using 10% trichloroacetic acid and centrifuged at 9660× g, RT for 10 min. After centrifugation, the absorbance of the supernatants was measured at 440 nm and protease production in the treated sample calculated compared to the control (100% production).

C[C@@H]1O[C@@H](OC[C@H]2O[C@@H](Oc3c(-c4ccc(O)c(O)c4)oc4cc(O)cc(O)c4c3=O)[C@H](O)[C@@H](O)[C@@H]2O)[C@H](O)[C@H](O)[C@H]1O [Rutin, rutin]
catheter biofilm forming ability, in words (MRSA IBRS MRSA 011 [1]): significantly reduced
reduction of elastase production [2]: 91%
inhibition at 250 µg/mL (MRSA IBRS MRSA 011 [3]; Staphylococcus aureus, MRSA, Keratinocyte, read-out: reduction of CFU adhered to human keratinocytes (inhibition)): 19%
reduction of CFU adhered to human keratinocytes (MRSA IBRS MRSA 011 [3]; rutin MIC): 63%
decrease of relative expression (lasI): 2.4 times
downregulation of relative mRNA level (pqsA): 3 fold
decrease of relative expression (lasR): about 1.7 times
decrease of relative expression (mvfR): 2.2 times
decrease of relative expression (rhlR): about 1.7 times
downregulation of relative mRNA level (rhlI): 2.6 fold
MIC (S. infantis 1371/1; 37 °C, 24 h, read-out: MIC): 1000 µg/mL (≈ 1640 µM)
MBC (S. infantis 1371/1; subcultivation, 24 h at 37 °C, read-out: MBC): 1000 µg/mL (≈ 1640 µM)
decrease of protease production [4]: more than 50%
